Test results: patent publication US5756491A, “Antiviral cobalt-organic compounds” (priority 1991, dated 1998)

Tests used:
[1] = system: RE strain HSV-1; experiment: Topical efficacy in RE strain HSV-1-induced stromal keratitis in the rabbit; format: in vivo, NZW rabbit; details: for efficacy ranking, average stromal disease scores: Example 4, FIG. 2; for efficacy ranking during stromal HSV-1 infection: Example 3, all eyes, FIG. 1, 1 mg/ml (TFT 0.1%), 9x/day, 5 days
Description: The following examples describe topical ocular evaluation of the inventive compounds during RE strain HSV-1-induced stromal keratitis in the rabbit. These evaluations included analysis of the topical efficacy of both the inventive compounds alone, or, in certain instances, in combination with trifluorothymidine (TFT). The evaluation was carried out by the combined analysis of both clinical and virological (HSV-1 recovery) parameters. The specified number of NZW rabbits (1.5-2.0 kg) were used. Animals were received at least two days prior to inoculation to allow them to accommodate to the conditions in the vivarium facility. This conditioning of the animals prior to inoculation minimizes animal variability. After the accommodation, the animals received a slit-lamp examination to exclude any animals with pre-existing anterior segment ocular defects. Animals were bi-laterally inoculated by intrastromal injection of 10^5 PFU RE strain HSV-1. The animals were then replaced individually into cages. On day number three post-inoculation (PI), the animals were evaluated by slit-lamp microscopy. Corneal stromal, iris and conjunctival disease were graded on an increasing scale of severity from 0+ to 4+. After evaluation, the animals were divided into a specified number of groups each containing an equal number of animals based on a matched corneal stromal involvement. Topical therapy was initiated immediately after animal groupings. All animals received daily slit-lamp evaluations from day 3 through 7 PI. The ocular HSV-1 induced disease severity was recorded daily. […] Differences in disease resolution and development of stromal alterations are statistically analyzed. Virus recovery during and after topical therapy was compared. The topical efficacy of Compounds 23 and 96 on stromal HSV-1 infection in the rabbit model of stromal keratitis was evaluated. All animals received daily slit lamp evaluations from day 3 through day 7 and on days 9 and 10 PI. The ocular HSV-1-induced disease severity was recorded daily. The topical efficacy of Compounds 23, 96 and 82 on stromal HSV-1 infection in the rabbit model of stromal keratitis was evaluated. All animals received daily slit lamp evaluations for day 3 through day 7 PI. The ocular HSV-1-induced disease severity was recorded daily. The topical efficacy of Compounds 23 and 96 in combination with TFT on stromal HSV-1 infection in the rabbit model of stromal keratitis was evaluated. Groups 1, 2 and 3 each have 5 animals for a total of 10 eyes per combination therapy. This allowed minimization of individual animal variability and performance of a statistical analysis on the results of the combination therapies. Groups 3, 4 and 5 have 2 animals each. These single-agent therapies were used to verify previously reported data on the efficacy of these compounds. The compounds are used at a lower frequency of delivery to match the dosing regimen of the combination-agent group. Consequently, the study also provides comparative information on Compounds 23 and 96 as a lower frequency of topical administration (4 times per day vs. 9 times per day in previous studies).

[2] = system: VZV; experiment: In vitro assay with VZV on HFF monolayers; format: cell-based; details: for virucidal efficacy (VZV titer): Table 20, 7 days PI; for effective virucidal concentration IC50: Table 21, VZV
Description: VZV was grown to a CPE level in vitro assays with VZV of 3-4+ on HFF cell monolayers. The VZV was scraped from the flask, centrifuged and the cell pellet was resuspended in 10 ml of complete medium. One hundred to 200 μl of the VZV cell associated inoculum was inoculated onto confluent HFF cell monolayers by absorption for 60 minutes at 37° C. After absorption of the virus, the inoculum was aspirated from the cell monolayers.
The VZV-infected monolayers were rehydrated with medium containing the appropriate concentrations of compounds to be tested. All monolayers were incubated at 37° C. Development of VZV cytopathology was monitored daily for 7 days by inverted light microscopy. Titers were calculated by multiple regression analysis.
Sham-inoculated, non-treated HFF cell monolayers were included among with the drug-treated monolayers as cell monolayer controls.
VZV inoculated, non-treated HFF monolayers were included as positive controls.

[3] = system: HFF cells; experiment: Cell proliferation assay; format: cell-based, human; details: rapidly growing cells
Description: Twenty-four hours prior to assay, HFF cells are seeded in 6-well plates at a concentration of 2.5×10^4 cells per well in MEM containing 10% FBS. On the day of the assay, drugs are diluted serially in MEM containing 10% FBS at increments of 1:5 covering a range from 100 μg/ml to 0.03 μg/ml. […] The media from the wells is then aspirated and 2 ml of each drug concentration is then added to each well. The cells are then incubated in a Co2 incubator at 37° C. for 72 h. At the end of this time, the media-drug solution is removed and the cells washed. […] The cell-media mixture is then pipetted up and down vigorously to break up the cell suspension and 0.2 ml of the mixture is added to 9.8 ml of Isoton III and counted using a Coulter Counter. Each sample is counted three times with three replicate wells per sample.

[4] = system: HFF cells; experiment: Neutral red uptake toxicity; format: cell-based, human; details: stationary cells
[5] = 0.1 mg/ml, toxicity observation questionable

| SMILES | efficacy ranking, average stromal disease scores [1] | virucidal efficacy (VZV titer) ([2]; 0.001 mg/ml) | virucidal efficacy (VZV titer) ([2]; 0.01 mg/ml) | virucidal efficacy (VZV titer) [2, 5] | effective virucidal concentration IC50 [2] [µg/mL] | toxicity IC50, cell proliferation [3] [MCG/ML] | toxicity IC50, neutral red uptake [4] [MCG/ML] | efficacy ranking during stromal HSV-1 infection [1] | virucidal efficacy (VZV titer) ([2]; 2 mg/ml) [PFU/ml] | virucidal efficacy (VZV titer) ([2]; 5 mg/ml) [PFU/ml] | further results |
| --- | --- | --- | --- | --- | --- | --- | --- | --- | --- | --- | --- |
| CC([O-])=CC(C)=NCCN=C(C)C=C(C)[O-].[Cl-].[Co+3].c1c[nH]cn1.c1c[nH]cn1 [Compound 82] | Compound 96>Compound 82>Compound 23>TFT=Placebo |  |  |  |  |  |  |  |  |  | efficacy relative to Compounds 23 and 96 ([1]; Example 4): intermediate between Compounds 23 and 96; reduction of stromal disease development ([1]; Example 4, 1 mg/ml, severity <0.5+ on day 3 PI): effective in reducing the development of stromal disease; effect on development or progression of stromal disease ([1]; Example 4, severity >0.75): did not alter the development or progression of stromal disease |
| CC(=NCCN=C(C)C(Cl)=C(C)[O-])C(Cl)=C(C)[O-].[Br-].[Co+3].c1c[nH]cn1.c1c[nH]cn1 [Compound 93] |  | 10^4 PFU/ml | 10^2 PFU/ml | T? | 10 | 25.0 | 27.3 |  |  |  |  |
| CC1=CC(C)=[N+]2CC[N+]3=C(C)C=C(C)[O][Co-3]23([NH3+])([NH3+])[O]1.[Cl-] [Compound 23, reference compound] | Compound 96>Compound 82>Compound 23>TFT=Placebo |  |  | T? |  | 6.2 | 11.5 | Compound 96>>Compound 23>TFT>Placebo | 0 | 0 | efficacy vs TFT therapy ([1]; Example 3, days 7, 9 and 10 PI): superior to TFT therapy; effect on stromal disease severity/progression ([1]; Example 5, FIG. 5, initial stromal disease <0.5 on day 3 PI): slowed the progression of stromal disease; virucidal efficacy (VZV titer) ([2]; 0.5 mg/ml): 0 PFU/ml; virucidal efficacy (VZV titer) ([2]; 1 mg/ml): 0 PFU/ml |
| CC([O-])=CC(C)=NCCN=C(C)C=C(C)[O-].Cc1ncc[nH]1.Cc1ncc[nH]1.[Br-].[Co+3] [Compound 96] | Compound 96>Compound 82>Compound 23>TFT=Placebo | 10^4 PFU/ml | 10^2 PFU/ml | T? | 10 | 21.0 | 22.0 | Compound 96>>Compound 23>TFT>Placebo | 0 | 0 | comparison with all other therapies in reducing/preventing corneal stromal keratitis ([1]; Example 3): superior to all other therapies in reducing and/or preventing the development of corneal stromal keratitis; scarring vs TFT animals ([1]; Example 3): significantly lower than the scarring in the TFT animals; comparison with compound 23 ([1]; Example 3, all of the therapies used): superior properties in all of the therapies used in the studies as compared to compound 23; efficacy vs other topical therapies ([1]; Example 3, days 4, 5 and 6 PI): significantly better results than the other topical therapies; efficacy vs TFT, Placebo and Compound 23 ([1]; Example 3, eyes with stromal disease <0.75 on day 3 PI): statistically better than TFT, Placebo and Compound 23; difference between Compound 96 single-agent and Compound 96 plus TFT ([1]; Example 5, FIG. 7, <0.5 on day 3 PI): No difference; effect on development and progression of stromal disease ([1]; Example 5, FIG. 7, score <0.5 on day 3 PI, 4 times per day): highly effective and slowed the progression and development stromal disease |
